Measurements reported in US20210401826A1, “ABUSE DETERRENT PHARMACEUTICAL FORMULATIONS” (AVEKSHAN, LLC., priority 2018, published 2021).
Where “and” joins values, the source holds several entries; their conditions need not be identical. Equal entries are not always repeated. Structures can show the parent of a compound that is named as a salt. Where two headings read alike, the source gives them in different places.

Columns and labels:
[1] = Solubility study of naltrexone and methylphenidate in common solvents and household items (visual examination); assay type: physicochemical
Method: The solubility of naltrexone and methylphenidate was evaluated in various commonly available solvents and household items, including water, cola soft drinks, ethanol, vinegar, nail polish remover, toluene, turpentine, and baking soda solution (see Table 1). The solubility results were determined by visual examination of each solution after warming and several hours of mixing. The solubility results are presented below in Table 1.

[2] = Separation of naltrexone and methylphenidate from a 1:1 mixture using acetone; assay type: physicochemical; details: for % NTX / MPH Recovered / NTX / MPH / mg NTX / MPH Recovered: Prep. A and B
Method: In this example, equal amounts of methylphenidate and naltrexone (20 mg each) were combined and then separated. To separate the methylphenidate from the naltrexone, only materials representing commonly available household items were used, e.g., acetone (nail polish remover), water, small glass containers, a hot plate and a coffee filter. Three sources of acetone were used, all of which are available to the public, including lab grade acetone, nail polish remover, and acetone heavy-duty cleaner.
Conditions for the separation, such as acetone volume and extraction time, were tested and adjusted.

[3] = 0.2% baking soda solution, aqueous buffer, thermodynamic from solid, read-out: Solubility
[4] = 25:75 acetone:water, aqueous with cosolvent or surfactant or cyclodextrin, thermodynamic from solid, 25:75 Acetone:H2O, read-out: Solubility
[5] = 40% ethanol, aqueous with cosolvent or surfactant or cyclodextrin, thermodynamic from solid, read-out: Solubility
[6] = 50:50 acetone:water, aqueous with cosolvent or surfactant or cyclodextrin, thermodynamic from solid, 50:50 Acetone:H2O, read-out: Solubility
[7] = Coca-Cola, aqueous buffer, thermodynamic from solid, read-out: Solubility
[8] = DMF, organic solvent or mixture, thermodynamic from solid, read-out: Solubility
[9] = DMSO, organic solvent or mixture, thermodynamic from solid, read-out: Solubility
[10] = acetone, organic solvent or mixture, thermodynamic from solid, read-out: Solubility
[11] = acetonitrile, organic solvent or mixture, thermodynamic from solid, read-out: Solubility
[12] = aqueous buffer, thermodynamic from solid, 0.1M Sodium Hydroxide, read-out: Solubility
[13] = canola oil, oil or lipid, thermodynamic from solid, read-out: Solubility
[14] = ethanol, organic solvent or mixture, thermodynamic from solid, read-out: Solubility
[15] = ethyl acetate, organic solvent or mixture, thermodynamic from solid, read-out: Solubility
[16] = hexanes, organic solvent or mixture, thermodynamic from solid, read-out: Solubility
[17] = isopropyl alcohol, organic solvent or mixture, thermodynamic from solid, read-out: Solubility
[18] = methanol, organic solvent or mixture, thermodynamic from solid, read-out: Solubility
[19] = methyl ethyl ketone, organic solvent or mixture, thermodynamic from solid, read-out: Solubility
[20] = mineral spirits, organic solvent or mixture, thermodynamic from solid, read-out: Solubility
[21] = naphtha, organic solvent or mixture, thermodynamic from solid, read-out: Solubility
[22] = simulated gastric fluid, thermodynamic from solid, 0.1M Hydrochloric Acid, read-out: Solubility
[23] = toluene, organic solvent or mixture, thermodynamic from solid, read-out: Solubility
[24] = turpentine, organic solvent or mixture, thermodynamic from solid, read-out: Solubility
[25] = vinegar, aqueous buffer, thermodynamic from solid, read-out: Solubility
[26] = water, thermodynamic from solid, read-out: Solubility
[27] = xylene, organic solvent or mixture, thermodynamic from solid, read-out: Solubility
[28] = Acetone Cleaner 20 mL, listed as NTX, HCl
[29] = Acetone Cleaner 50 mL, listed as NTX, HCl
[30] = Lab Grade Acetone 20 mL, listed as NTX, HCl
[31] = Nail Polish Remover 20 mL, listed as NTX, HCl
[32] = Nail Polish Remover 50 mL, listed as NTX, HCl
[33] = Acetone Cleaner 20 mL, listed as MPH, HCl
[34] = Lab Grade Acetone 20 mL, listed as MPH, HCl
[35] = Lab Grade Acetone 50 mL, listed as MPH, HCl
[36] = Nail Polish Remover 20 mL, listed as MPH, HCl
[37] = Nail Polish Remover 50 mL, listed as MPH, HCl

## O=C1CC[C@@]2(O)[C@H]3Cc4ccc(O)c5c4[C@@]2(CCN3CC2CC2)[C@H]1O5 [Naltrexone HCl]
[1]; [3]
  solubility: > 1000 µg/mL
[1]; [4]
  solubility: > 1000 µg/mL
[1]; [5]
  solubility: > 1000 µg/mL
[1]; [6]
  solubility: > 1000 µg/mL
[1]; Acetone, HCl
  solubility: <100 µg/mL
[1]; [7]
  solubility: > 1000 µg/mL
[1]; [8]
  solubility: > 1000 µg/mL
[1]; [9]
  solubility: > 1000 µg/mL
[1]; [10]
  solubility: < 100 µg/mL
[1]; [11]
  solubility: 100 to 500 µg/mL
[1]; [12]
  solubility: > 1000 µg/mL
[1]; [13]
  solubility: < 100 µg/mL
[1]; [14]
  solubility: > 1000 µg/mL
[1]; [15]
  solubility: < 100 µg/mL
[1]; [16]
  solubility: < 100 µg/mL
[1]; [17]
  solubility: < 100 µg/mL
[1]; [18]
  solubility: > 1000 µg/mL
[1]; [19]
  solubility: < 100 µg/mL
[1]; [20]
  solubility: < 100 µg/mL
[1]; [21]
  solubility: < 100 µg/mL
[1]; [22]
  solubility: > 1000 µg/mL
[1]; [23]
  solubility: < 100 µg/mL
[1]; [24]
  solubility: < 100 µg/mL
[1]; [25]
  solubility: > 1000 µg/mL
[1]; [26]
  solubility: > 1000 µg/mL
[1]; [27]
  solubility: < 100 µg/mL
[2]; [28]
  % NTX / MPH Recovered: 5.1% and 8.5%
  NTX / MPH: 0.05 mg/mL and 0.09 mg/mL
  mg NTX / MPH Recovered: 1.02 mg and 1.7 mg
[2]; Acetone Cleaner 50 mL
  NTX / MPH: 0.13 mg/mL
[2]; [29]
  % NTX / MPH Recovered: 13.4% and 12.5%
  mg NTX / MPH Recovered: 2.68 mg and 2.5 mg
[2]; [30]
  % NTX / MPH Recovered: 5.2% and 6.5%
  NTX / MPH: 0.05 mg/mL and 0.06 mg/mL
  mg NTX / MPH Recovered: 1.04 mg and 1.3 mg
[2]; [31]
  % NTX / MPH Recovered: 5.6% and 8.6%
  NTX / MPH: 0.06 mg/mL and 0.09 mg/mL
  mg NTX / MPH Recovered: 1.12 mg and 1.72 mg
[2]; Nail Polish Remover 50 mL, 20 mg each drug combined, listed as NTX, HCl
  NTX / MPH: 0.14 mg/mL and 0.15 mg/mL
[2]; [32]
  % NTX / MPH Recovered: 13.8% and 15.4%
  mg NTX / MPH Recovered: 2.76 mg and 3.08 mg

## COC(=O)C(c1ccccc1)C1CCCCN1 (stereo not drawn) [Methylphenidate HCl]
[1]; [3]
  solubility: > 1000 µg/mL
[1]; [4]
  solubility: > 1000 µg/mL
[1]; [5]
  solubility: > 1000 µg/mL
[1]; [6]
  solubility: > 1000 µg/mL
[1]; Acetone, HCl
  solubility: >1000 µg/mL
[1]; [7]
  solubility: > 1000 µg/mL
[1]; [8]
  solubility: > 1000 µg/mL
[1]; [9]
  solubility: > 1000 µg/mL
[1]; [10]
  solubility: > 1000 µg/mL
[1]; [11]
  solubility: > 1000 µg/mL
[1]; [12]
  solubility: > 1000 µg/mL
[1]; [13]
  solubility: < 100 µg/mL
[1]; [14]
  solubility: > 1000 µg/mL
[1]; [15]
  solubility: 100 to 500 µg/mL
[1]; [16]
  solubility: 100 to 500 µg/mL
[1]; [17]
  solubility: > 1000 µg/mL
[1]; [18]
  solubility: > 1000 µg/mL
[1]; [19]
  solubility: 500 to 1000 µg/mL
[1]; [20]
  solubility: < 100 µg/mL
[1]; [21]
  solubility: < 100 µg/mL
[1]; [22]
  solubility: > 1000 µg/mL
[1]; [23]
  solubility: < 100 µg/mL
[1]; [24]
  solubility: < 100 µg/mL
[1]; [25]
  solubility: > 1000 µg/mL
[1]; [26]
  solubility: > 1000 µg/mL
[1]; [27]
  solubility: < 100 µg/mL
[2]; Acetone Cleaner 20 mL
  mg NTX / MPH Recovered: 15.9 mg
[2]; [33]
  % NTX / MPH Recovered: 79.5% and 79.7%
  NTX / MPH: 0.79 mg/mL and 0.80 mg/mL
[2]; Acetone Cleaner 50 mL
  NTX / MPH: 0.92 mg/mL
  mg NTX / MPH Recovered: 18.4 mg
[2]; Acetone Cleaner 50 mL, listed as MPH, HCl
  % NTX / MPH Recovered: 92.0% and 91.8%
[2]; [34]
  % NTX / MPH Recovered: 76.4% and 73.7%
  NTX / MPH: 0.76 mg/mL and 0.74 mg/mL
  mg NTX / MPH Recovered: 15.3 mg and 14.7 mg
[2]; [35]
  % NTX / MPH Recovered: 91.5% and 92.4%
  NTX / MPH: 0.91 mg/mL and 0.92 mg/mL
  mg NTX / MPH Recovered: 18.3 mg and 18.5 mg
[2]; Nail Polish Remover 20 mL
  mg NTX / MPH Recovered: 14.6 mg
[2]; [36]
  % NTX / MPH Recovered: 73.0% and 79.4%
  NTX / MPH: 0.73 mg/mL and 0.79 mg/mL
  mg NTX / MPH Recovered: 15.9 mg
[2]; Nail Polish Remover 50 mL, 20 mg each drug combined, listed as MPH, HCl
  NTX / MPH: 0.91 mg/mL and 0.90 mg/mL
[2]; [37]
  % NTX / MPH Recovered: 91.4% and 90.1%
  mg NTX / MPH Recovered: 18.3 mg and 18.0 mg
[2]; depending on the volume of acetone used
  % of methylphenidate extracted: 73-92%
